Experimental data published in ChEMBL document CHEMBL4364246, “Synthesis and biological evaluation of 5-aminoethyl benzophenanthridone derivatives as DNA topoisomerase IB inhibitors” (Eur J Med Chem, 2019).
The source made the active and inactive calls. No cut-off for these calls is given here.

How the values were obtained:
HCT-116 [1] = assay: Antitumour activity against human HCT116 cells xenografted in athymic nude nu/nu mouse assessed as inhibition in tumor weight at 20 mg/kg administrated daily by caliper method relative to control; assay type: functional
HCT-116 [2] = assay: Induction of apoptosis in human HCT116 cells assessed as viable cells at 2 uM incubated for 24 hrs by FITC and PI staining based flow cytometric analysis (reference value: 99.27%); assay type: functional; settings: HCT-116, 24 h, read-out: Activity
MCF7 [3] = assay: Antitumour activity against human MCF7 cells xenografted in athymic nude nu/nu mouse assessed as inhibition in tumor weight at 10 mg/kg administrated daily by caliper method relative to control; assay type: functional
[4] = Solubility of the compound in DMSO; assay type: physicochemical
[5] = molecular target: T1, DNA topoisomerase 1 (Homo sapiens) (UniProt P11387); assay: Inhibition of TOP1 in human HCT116 cells assessed as induction of cellular TOP1cc formation at 25 uM incubated for 1 hr by chemiluminescence based assay; assay type: cell-based
T1 sequence (whole entry): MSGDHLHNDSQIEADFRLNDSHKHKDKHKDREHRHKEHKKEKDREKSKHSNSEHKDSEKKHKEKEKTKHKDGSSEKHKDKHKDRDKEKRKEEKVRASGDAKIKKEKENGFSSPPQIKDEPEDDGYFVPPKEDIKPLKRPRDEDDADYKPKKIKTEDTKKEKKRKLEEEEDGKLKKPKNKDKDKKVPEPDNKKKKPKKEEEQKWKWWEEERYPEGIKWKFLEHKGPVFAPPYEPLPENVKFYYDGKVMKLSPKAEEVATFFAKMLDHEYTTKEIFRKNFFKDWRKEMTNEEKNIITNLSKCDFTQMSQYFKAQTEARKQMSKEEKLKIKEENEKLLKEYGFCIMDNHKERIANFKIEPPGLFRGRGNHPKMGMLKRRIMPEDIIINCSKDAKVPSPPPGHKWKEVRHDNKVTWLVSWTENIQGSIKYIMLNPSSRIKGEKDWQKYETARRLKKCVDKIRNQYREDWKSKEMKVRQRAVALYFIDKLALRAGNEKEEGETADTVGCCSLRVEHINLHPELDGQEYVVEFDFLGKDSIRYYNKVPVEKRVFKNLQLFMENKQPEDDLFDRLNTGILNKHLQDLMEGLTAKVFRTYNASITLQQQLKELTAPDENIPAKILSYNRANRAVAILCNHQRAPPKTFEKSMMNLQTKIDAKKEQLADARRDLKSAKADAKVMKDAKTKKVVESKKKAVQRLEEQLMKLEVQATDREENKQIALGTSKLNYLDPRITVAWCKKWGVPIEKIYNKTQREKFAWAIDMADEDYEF

[6] = Acute toxicity in Kunming mouse assessed as mortality at 153.6 to 240 mg/kg, ip administrated as single dose measured for 7 days post drug administration; assay type: organism-based; settings: in vivo, 168 h
[7] = Acute toxicity in ip dosed Kunming mouse assessed as mortality administrated for 7 days; assay type: organism-based; settings: in vivo, 168 h
HCT-116 [8] = assay: Induction of apoptosis in human HCT116 cells assessed as viable cells at 1 uM incubated for 24 hrs by FITC and PI staining based flow cytometric analysis (reference value: 99.27%); assay type: functional; settings: HCT-116, 24 h, read-out: Activity
HCT-116 [9] = assay: Induction of apoptosis in human HCT116 cells assessed as increase in apoptotic cells incubated for 24 hrs by FITC and PI staining based flow cytometric analysis; assay type: functional, cell-based
[10] = Growth inhibition of human DU145/RC0.1 cells harboring TOP1 R364H mutant incubated for 72 hrs by MTT assay; assay type: functional; settings: DU-145, 72 h
MCF7 [11] = assay: Antitumour activity against human MCF7 cells xenografted in athymic nude nu/nu mouse assessed as inhibition in tumor weight at 5 mg/kg administrated daily by caliper method relative to control; assay type: functional
[12] = Cmax in Sprague-Dawley rat at 5 mg/kg, ig measured for 0.083 to 4 hrs by LC-MS/MS analysis; assay type: ADME, organism-based; parameters: dose 5 mg/kg, route […]; settings: in vivo, po
HCT-116 [13] = assay: Antitumour activity against human HCT116 cells xenografted in athymic nude nu/nu mouse assessed as inhibition in tumor weight at 10 mg/kg administrated daily by caliper method relative to control; assay type: functional
[14] = Acute toxicity in Kunming mouse assessed as mortality at 300 mg/kg, ip administrated as single dose measured within 5 days after drug administration; assay type: organism-based; settings: in vivo, 120 h
[15] = Acute toxicity in Kunming mouse assessed as animal survival at 122.9 mg/kg, ip administrated as single dose measured for 7 days post administration; assay type: organism-based; settings: in vivo
MCF7 [16] = assay: Antitumour activity against human MCF7 cells xenografted in athymic nude nu/nu mouse assessed as inhibition in tumor weight at 20 mg/kg administrated daily by caliper method relative to control; assay type: functional
HCT-116 [17] = assay: Antitumour activity against human HCT116 cells xenografted in athymic nude nu/nu mouse assessed as inhibition in tumor weight at 5 mg/kg administrated daily by caliper method relative to control; assay type: functional
[18] = AUC (0 to infinity) in Sprague-Dawley rat at 1 mg/kg, iv measured for 0.083 to 4 hrs by LC-MS/MS analysis; assay type: ADME, organism-based; parameters: dose 1 mg/kg, route intravenous, time infinity; settings: in vivo
[19] = Oral bioavailability in Sprague-Dawley rat at 5 mg/kg measured for 0.083 to 4 hrs by LC-MS/MS analysis; assay type: ADME, organism-based; settings: in vivo
[20] = molecular target: T1, DNA topoisomerase 1 (Homo sapiens); assay: Inhibition of TOP1 in human HCT116 cells assessed as induction of DNA damage by measuring increase in gammaH2AX foci at 1 uM incubated for 3 hrs by DAPI staining based immunofluorescence microscopic method; assay type: cell-based
[21] = molecular target: T1, DNA topoisomerase 1 (Homo sapiens); assay: Inhibition of TOP1 in human HCT116 cells assessed as induction of cellular TOP1cc formation incubated for 1 hr by chemiluminescence based assay; assay type: cell-based
HCT-116 [22] = assay: Growth inhibition of human HCT116 cells expressing siTOP1 incubated for 72 hrs by MTT assay; assay type: functional; settings: HCT-116, 72 h
HCT-116 [23] = assay: Antitumour activity against human HCT116 cells xenografted in ip dosed athymic nude nu/nu mouse assessed as reduction in tumor volume administrated daily by caliper method; assay type: functional, organism-based
[24] = AUC (0 to t) in Sprague-Dawley rat at 1 mg/kg, iv measured for 0.083 to 4 hrs by LC-MS/MS analysis; assay type: ADME, organism-based; parameters: time 0.083-4 hr, dose 1 mg/kg, route intravenous; settings: in vivo
[25] = MRT (0 to infinity) in Sprague-Dawley rat at 1 mg/kg, iv measured for 0.083 to 4 hrs by LC-MS/MS analysis; settings: in vivo

CNCCn1c(=O)c2cc(OC)c(OC)cc2c2ccc3cc4c(cc3c21)OCO4
inhibition in vivo at 20 mg/kg (HCT-116 [1]): 76.9% | viability at 2 µM (HCT-116 [2]): 69.4% | inhibition in vivo at 10 mg/kg (MCF7 [3]): 56.9% | solubility [4]: Soluble | Activity [5]: Active | Activity [6]: Toxic | LD50 [7]: 192 mg/kg | viability at 1 µM (HCT-116 [8]): 88.1% | Activity (HCT-116 [9]): Dose-dependent effect | GI50 [10]: 430 nM | inhibition in vivo at 5 mg/kg (MCF7 [11]): 44% | Cmax [12]: 19 ng/mL | inhibition in vivo at 10 mg/kg (HCT-116 [13]): 64.5% | Activity [14]: Toxic | survival at 168 h [15]: 100% | inhibition in vivo at 20 mg/kg (MCF7 [16]): 71.8% | inhibition in vivo at 5 mg/kg (HCT-116 [17]): 49.3% | AUC(0-inf) [18]: 49.5 ng·h/mL | F [19]: 20.4% | Activity [20]: Active | Activity [21]: Dose-dependent effect | GI50 (HCT-116 [22]): 320 nM | inhibition (HCT-116 [23]): Dose-dependent effect | AUC(0-t) [24]: 47.2 ng·h/mL | MRT inf [25]: 1.46 h
